Experimental data from ChEMBL document CHEMBL4043204, “meso-Dihydroguaiaretic acid derivatives with antibacterial and antimycobacterial activity” (Bioorg Med Chem, 2017).
In brackets after ≈: the same amount, converted by molar mass. Activity calls are given as the source filed them. No cut-off for these calls is given here.

What was measured:
Salmonella enterica = test: Antibacterial activity against Salmonella choleraesuis; format: functional
Bacillus subtilis = test: Antibacterial activity against Bacillus subtilis; format: functional
Jonesia denitrificans = test: Antibacterial activity against Listeria denitrificans; format: functional
Escherichia coli [1] = test: Antibacterial activity against oxacillin-resistant Escherichia coli OXA-48 assessed as inhibition of microbial growth up to 50 ug/ml incubated for 24 hrs by microdilution assay; format: functional
Enterococcus faecium = test: Antibacterial activity against vancomycin-resistant Enterococcus faecium (10-984) assessed as inhibition of microbial growth incubated for 24 hrs by microdilution assay; format: functional
Klebsiella pneumoniae [2] = test: Antibacterial activity against extended-spectrum beta-lactamase-positive Klebsiella pneumoniae (14-2081) assessed as inhibition of microbial growth up to 50 ug/ml incubated for 24 hrs by microdilution assay; format: functional
Klebsiella pneumoniae [3] = test: Antibacterial activity against NDM-1 positive Klebsiella pneumoniae (14-3335) assessed as inhibition of microbial growth up to 50 ug/ml incubated for 24 hrs by microdilution assay; format: functional
[4] = system: Mycobacterium tuberculosis; test: Antimycobacterial activity against Mycobacterium tuberculosis H37Rv ATCC 27294 assessed as inhibition of mycobacterial growth incubated for 2 weeks by MABA method; format: functional; details: for MIC: Mycobacterium tuberculosis, H37Rv ATCC 27294, 336 h
Providencia rettgeri = test: Antibacterial activity against NDM-1 positive Providencia rettgeri assessed as inhibition of microbial growth up to 50 ug/ml incubated for 24 hrs by microdilution assay; format: functional
Vero = test: Cytotoxicity against African green monkey Vero cells assessed as reduction in cell viability incubated for 24 hrs by trypan blue staining based assay; details: Chlorocebus sabaeus
[5] = Selectivity index, ratio of IC50 for cytotoxicity against African green monkey Vero cells to MIC for antibacterial activity against methicillin-resistant Staphylococcus aureus (14-2095)
[6] = Selectivity index, ratio of IC50 for cytotoxicity against African green monkey Vero cells to MIC for Mycobacterium tuberculosis H37Rv ATCC 27294; format: toxicity, cell-based; details: read-out: Selectivity Index
[7] = system: Staphylococcus epidermidis; test: Antibacterial activity against linezolid-resistant Staphylococcus epidermidis (14-583) assessed as inhibition of microbial growth incubated for 24 hrs by microdilution assay; format: functional
Escherichia coli [8] = test: Antibacterial activity against extended-spectrum beta-lactamase-positive Escherichia coli (14-2081) assessed as inhibition of microbial growth up to 50 ug/ml incubated for 24 hrs by microdilution assay; format: functional
Staphylococcus aureus [9] = test: Antibacterial activity against methicillin-resistant Staphylococcus aureus (14-2095) assessed as inhibition of microbial growth incubated for 24 hrs by microdilution assay; format: functional
[10] = system: Stenotrophomonas maltophilia; test: Antibacterial activity against trimethoprim-sulfamethoxazole-resistant Stenotrophomonas maltophilia assessed as inhibition of microbial growth up to 50 ug/ml incubated for 24 hrs by microdilution assay; format: functional
Acinetobacter baumannii = test: Antibacterial activity against carbapenem-resistant Acinetobacter baumannii (12-666) assessed as inhibition of microbial growth up to 50 ug/ml incubated for 24 hrs by microdilution assay; format: functional
[11] = system: Staphylococcus haemolyticus; test: Antibacterial activity against linezolid-resistant Staphylococcus haemolyticus 2975 assessed as inhibition of microbial growth incubated for 24 hrs by microdilution assay; format: functional; details: Staphylococcus haemolyticus, 2975, 24 h
Pseudomonas aeruginosa = test: Antibacterial activity against carbapenem-resistant Pseudomonas aeruginosa (13-1391) assessed as inhibition of microbial growth up to 50 ug/ml incubated for 48 hrs by microdilution assay; format: functional
Staphylococcus aureus [12] = test: Antibacterial activity against Staphylococcus aureus; format: functional
Staphylococcus aureus [13] = test: Antibacterial activity against methicillin-resistant Staphylococcus aureus; format: functional

## COc1cc(C[C@H](C)[C@@H](C)Cc2ccc(O)c(OC)c2)ccc1O
Salmonella enterica
  MIC: 3100 µM (≈ 1020 µg/mL)
Bacillus subtilis
  MIC: 1600 µM (≈ 529 µg/mL)
Jonesia denitrificans
  MIC: 400 µM (≈ 132 µg/mL)

## COc1cc(C[C@@H](C)[C@@H](C)Cc2ccc(OC(=O)c3ccccn3)c(OC)c2)ccc1O (racemic)
Escherichia coli [1]
  Activity: inactive
Enterococcus faecium
  MIC: > 50 µg/mL
Klebsiella pneumoniae [2]
  Activity: inactive
Klebsiella pneumoniae [3]
  Activity: inactive
[4]
  -logMIC: 3.87
  MIC: 50 µg/mL (≈ 115 µM)
Providencia rettgeri
  Activity: inactive
Vero
  IC50: 65 µg/mL (≈ 149 µM)
[5]
  Selectivity Index: 2.6
[6]
  selectivity ratio: 1.3
[7]
  MIC: > 50 µg/mL
Escherichia coli [8]
  Activity: inactive
Staphylococcus aureus [9]
  MIC: 25 µg/mL
[10]
  Activity: inactive
Acinetobacter baumannii
  Activity: inactive
[11]
  MIC: > 50 µg/mL
Pseudomonas aeruginosa
  Activity: inactive

## COc1cc(C[C@@H](C)[C@H](C)Cc2ccc(O)c(OC)c2)ccc1O [(-)-DIHYDROGUAIARETICACID]
Bacillus subtilis
  MIC: 1600 µM (≈ 529 µg/mL)
Jonesia denitrificans
  MIC: 400 µM (≈ 132 µg/mL)

## COc1cc(C[C@@H](C)[C@@H](C)Cc2ccc(O)c(OC)c2)ccc1O [MESODIHYDROGUAIARETIC ACID]
[4]
  MIC: 50 µg/mL (≈ 151 µM)
Bacillus subtilis
  MIC: 1600 µM (≈ 529 µg/mL)
Staphylococcus aureus [12]
  MIC: 1600 µM (≈ 529 µg/mL)
Jonesia denitrificans
  MIC: 1600 µM (≈ 529 µg/mL)
Staphylococcus aureus [13]
  MIC: 50 µg/mL (≈ 151 µM)
